Measurements: patent publication US7323541B2, “Polypeptide DNA thereof and use of the same” (Takeda Pharmaceutical Company Limited, priority 2001, dated 2008)
Substitutions are numbered along the chain they refer to. Where no end group is shown, it is not given here.

Tests used:
[1] = biological target: T1, TGR23-2 expressing CHO cells (Homo sapiens, UniProt Q6W5P4, N107I/Q344R); assay: Enhancing activity of intracellular cAMP production; type: cell-based
T1 construct: the clones having the cDNA of TGR23-2, which is contained in pTB2174, were selected; expressed in transfected cells; host or cells: hamster CHO/dhfr- cells, vector pAKKO-111H (pAKKO-TGR23-2)
T1 sequence (Q6W5P4 1-371 N107I/Q344R): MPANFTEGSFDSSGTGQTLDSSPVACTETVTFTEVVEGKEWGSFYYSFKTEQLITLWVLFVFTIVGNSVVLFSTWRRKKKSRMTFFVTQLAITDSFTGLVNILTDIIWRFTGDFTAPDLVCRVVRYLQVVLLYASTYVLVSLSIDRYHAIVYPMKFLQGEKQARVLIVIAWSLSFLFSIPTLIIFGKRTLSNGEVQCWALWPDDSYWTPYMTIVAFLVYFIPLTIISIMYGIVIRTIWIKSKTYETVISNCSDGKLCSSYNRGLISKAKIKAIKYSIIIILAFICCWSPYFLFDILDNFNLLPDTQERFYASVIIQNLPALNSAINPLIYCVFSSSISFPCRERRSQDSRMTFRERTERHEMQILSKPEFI
Method: The CHO/TGR23-2 cells prepared in Example 1 and selected in Example 2 were plated on 24-well plate at 7×10^4 cells/well and cultured for 48 hours. The cells were washed with αMEM medium (pH7.5) containing 0.2 mM 3-isobutyl-methylxanthine, 0.05% BSA and 20 mM HEPES (hereafter, αMEM medium (pH7.5) containing 0.2 mM 3-isobutyl-methylxanthine, 0.05% BSA and 20 mM HEPES may be referred to as a reaction buffer). Subsequently, 0.5 ml of the reaction buffer was added, and the solution was incubated for 30 minutes in the incubator. The reaction buffer was removed and 0.25 ml of the reaction buffer was freshly added to the cells. Then, the cells were admixed with a sample and 0.25 ml of the reaction buffer containing 2 μM forskoline, and incubated at 37° C. for 30 minutes. Intracellular cAMP was extracted by removing the reaction solution and adding 0.5 ml of the solution for cell lysis attached with cAMP EIA Kit (Applied Biosystems). The cAMP level in the extract was quantified with the same kit. Based on this measured value, a calculation was made using the following formula, and the enhancing/inhibiting activity for cAMP production was represented by % of control. The activity of the sample-adding group was calculated using a control value configured in each plate. % of control=(X−C)/(T−C)×100
X: The cAMP level in the sample-adding group
T: The means of the cAMP level in 3 wells of positive control (no sample, with stimulus of forskoline)
C: The means of the cAMP level in 3 wells of negative control (no sample, without stimulus of forskoline)
In addition, for the same sample, in accordance with the method shown in Example 4, an arachidonic acid metabolite releasing activity was assayed.
Four microlitters each of the above-mentioned HPLC active fractions of rat whole brain extracts (Fraction numbers 18, 20 and 22 to 23) was added to 100 μl of 0.2 M ammonium acetate and incubated at 37° C. for 2 hours with 3 μg of Pronase. Subsequently, Pronase added, was inactivated by heating in boiling water for 10 minutes. To this solution, one ml of distilled water containing 0.05 mg of BSA and 0.05 mg of CHAPS was added. Further, it was lyophilized. For the lyophilized sample, enhancing activity for intracellular cAMP production was assayed by adding to TGR23-2 expressing CHO cells according to the method shown in Example 3.
Human TGR23-2 ligand (1-20) prepared by the method described in Example 17 was administered to TGR23-1 expressing CHO cells and TGR23-2 expressing CHO cells at a variety of concentrations according to the method described in Example 3, and the enhancing activity of intracellular cAMP production was determined.
Further, human TGR23-2 ligand (1-20) and rat TGR23-2 ligand (1-18) prepared by the method described in Example 19 were administered to TGR23-1 expressing CHO cells and TGR23-2 expressing CHO cells at a variety of concentrations, and the same assay as described above was carried out under the condition of no forskolin. A calculation was made using the following formula, and the enhancing activity for cAMP production was represented by % of control: % of control=X/C×100;
X: The cAMP level in the sample-adding group; and
C: Control (no sample, without stimulus of forskoline).

[2] = biological target: T2, TGR23-1 expressing CHO cells (Homo sapiens, UniProt Q6W5P4); assay: Enhancing activity of arachidonic acid metabolite release; type: cell-based
T2 construct: the clones having the cDNA of TGR23-1, which is contained in pTB2173, were selected; expressed in transfected cells; host or cells: hamster CHO/dhfr- cells, vector pAKKO-111H (pAKKO-TGR23-1), clones No. 49 and No. 52
T2 sequence (Q6W5P4 1-371): T1 sequence (Q6W5P4 1-371 N107I/Q344R) with I107N, R344Q

Sequence	enhancing activity of intracellular cAMP production ([1]; no forskolin)	enhancing activity of intracellular cAMP production ([1]; with forskolin)	enhancing activity of arachidonic acid metabolite release [2]
SFRNGVGSGVKKTSFRRA [rat TGR23-2 ligand (1-18), Ser-Phe-Arg-Asn-Gly-Val-Gly-Ser-Gly-Val-Lys-Lys-Thr-Ser-Phe-Arg-Arg-Ala]	enhance the intracellular cAMP production	specifically exhibits an enhancing activity for cAMP production	enhance the arachidonic acid metabolite release
SFRNGVGTGMKKTSFQRAKS [human TGR23-2 ligand (1-20)]	enhance the intracellular cAMP production	clearly enhances cAMP production	enhance the arachidonic acid metabolite release
